From US4088752A, “Oral composition for plaque and caries inhibition” (Gaba AG, priority 1974, dated 1978)

How the values were obtained:
Assay type in all cases: in vivo, Osbourne-Mendel rats
[1] = tested on: Streptococcus mutans OMZ 176; assay: Rat caries experiment: smooth surface plaque, smooth surface caries and fissure caries after local application of aqueous test solutions; settings: for Average number per rat of smooth surface plaque extent (PU) / Average number per rat of advanced dentinal fissure lesions (B) / Average number per rat of smooth surface carious units (E): means of 10 animals; for Average number per rat of smooth surface plaque extent (PU): standard error 0.29; for Average number per rat of advanced dentinal fissure lesions (B): standard error 0.94; for Average number per rat of smooth surface carious units (E): standard error 1.81; for cariostatic effects of sodium fluoride and sodium trimetaphosphate together: smooth surface caries, combination of the two
Method: To examine the effect of the compounds used according to the present invention, a series of animal experiments were carried out. In these tests an aqueous solution of the test compounds was applied locally to determine its action in inhibiting plaque and caries.
(§1) On day 13 the animals with their dams were transferred to stainless-steel cages and fed powdered Nafag diet. The animals were weaned when 22 days old and distributed at random among the treatments.
(§2) 0.1 ml of the test solutions were applied once daily during the whole 20-day experimental period in which diet 2000a and tap water were available ad libitum. On day 22 the animals were superinfected twice with Streptococcus mutans OMZ 176. Caries, molar surface dissolution rate and fluoride content were assessed acccording to routine procedures.

[2] = Weight gain of rats during the 20-day experimental period; settings: means of 10 animals, standard error 3.4
Method: (§3) Groups of 10 Osbourne-Mendel rats, which are particularly suitable for caries-inhibition studies, were subjected to the following treatments:
as §1, §2

[3] = Postmortal rat molar solubility (molar surface dissolution rate); settings: per mand: m1 + m2 in 10 ml 0.025 M acetate buffer pH 4, 60 min., 37° C; standard error 5.7
Method: as §2

[4] = Fluoride content of maxillary molar surfaces; settings: maxillary molars m1 + m2, 15 sec. in 2N hydrochloric acid under agitation; for Fluoride concentration, cumulated layers: first and second cumulated layers, standard error 12.4; for Fluoride concentration, second layer: standard error 10.4; for Fluoride concentration, first layer: standard error 16.6
Method: as §3, §2
Fluoride concentrations in the first, the second and the
first and second cumulated layers (ppm F) in the maxillary
molars (m1 + m2, 15 sec. in 2N hydrochloric acid under

[5] = rats, 20-day experimental period

Compound	Average number per rat of smooth surface plaque extent (PU) ([1]; 20-day experimental period)	Average number per rat of advanced dentinal fissure lesions (B) ([1]; 20-day experimental period)	Average number per rat of smooth surface carious units (E) ([1]; 20-day experimental period)	Smooth surface caries (statement) [1, 5]	cariostatic effects of sodium fluoride and sodium trimetaphosphate together [1]	weight gains [2]	Postmortal rat molar solubility [3]	Fluoride concentration, cumulated layers [4]	Fluoride concentration, second layer [4]	Fluoride concentration, first layer [4]	further results
O=P1([O-])OP(=O)([O-])OP(=O)([O-])O1.[Na+].[Na+].[Na+] [Treatment 4, sodium trimetaphosphate]	2.7	6.1	10.1	effective	additive	60 g					
N,N,N'-tris-(2-hydroxyethyl)-N'-octadecyl-1,3-diaminopropanediorthophosphate [Treatment 8]							121 μgP				
N,N,N'-tris-(2-hydroxyethyl)-N'-octadecyl-1,3-diaminopropanemonohydrofluoride monoorthophosphate [Treatment 9]							130 μgP	74 ppm F	53 ppm F	92 ppm F	
N,N,N'-tris-(7-hydroxyethyl)-N'-octadecyl-1,3-diaminopropanepyrophosphate [Example 7]								143 ppm F	94 ppm F	187 ppm F	
N-(2-hydroxyethyl)-2-heptadecen-9-yl-imidazoline orthophosphate [Example 6]											Smooth surface plaque, average extent (statement) [1, 5]: significantly lower (PF <0.001)
sodium fluoride [Treatment 3]	2.5	9.8	9.0	effective	additive	65 g					
